Reference: patent US8030344B2, “Inhibitors of histone deacetylase” (MethylGene Inc., priority 2007, dated 2011)

Key:
HMEC cells = test: MTT assay on HMEC cells; assay type: cell-based; conditions: similar MTT assay on HMEC cells
Protocol: (§1) HCT116 cells (2000/well) are plated into 96-well tissue culture plates one day before compound treatment. Representative compounds at various concentrations were added to the cells. The cells are incubated for 72 hours at 37° C. in 5% CO2 incubator. MTT (3-[4,5-dimethylthiazol-2-yl]-2,5 diphenyl tetrazolium bromide, Sigma) is added at a final concentration of 0.5 mg/ml and incubated with the cells for 4 hours before one volume of solubilization buffer (50% N,N-dimethylformamide, 20% SDS, pH 4.7) is added onto the cultured cells. After overnight incubation, solubilized dye is quantified by calorimetric reading at 570 nM using a reference at 630 nM. OD values are converted to cell numbers according to a standard growth curve of the relevant cell line. The concentration which reduces cell numbers to 50% of that of solvent treated cells is determined as MTT IC50. A similar assay is performed on HMEC cells.

HDAC-1 = HDAC-1 (Homo sapiens, UniProt Q13547); test: Inhibition of histone deacetylase enzymatic (HDAC-1) activity, Boc-Lys(Ac)-AMC fluorescence assay; assay type: biochemical
Protocol: Inhibition of Histone Deacetylase Enzymatic (HDAC-1) Activity
(§2) The following protocol is used to assay the compounds of the invention. In the assay, the buffer used is 25 mM HEPES, pH 8.0, 137 mM NaCl, 2.7 mM KCl, 1 mM MgCl2 and the substrate is Boc-Lys(Ac)-AMC in a 50 mM stock solution in DMSO. The enzyme stock solution is 4.08 μg/mL in buffer.
(§3) The compounds are pre-incubated (2 μl in DMSO diluted to 13 μl in buffer for transfer to assay plate) with enzyme (20 μl of 4.08 μg/ml) for 10 minutes at room temperature (35 μl pre-incubation volume). The mixture is pre-incubated for 5 minutes at room temperature. The reaction is started by bringing the temperature to 37° C. and adding 15 μl substrate. Total reaction volume is 50 μl. The reaction is stopped after 20 minutes by addition of 50 μl developer, prepared as directed by Biomol (Fluor-de-Lys developer, Cat. # KI-105). A plate is incubated in the dark for 10 minutes at room temperature before reading (λEx=360 nm, λEm=470 nm, Cutoff filter at 435 nm). Similar assays are performed to measure HDAC-2 inhibitory activity

HDAC-2 = HDAC-2 (Homo sapiens, UniProt Q92769); test: Similar assay measuring HDAC-2 inhibitory activity; assay type: biochemical
Protocol: as §2, §3

HCT116 cells = test: MTT assay on HCT116 cells; assay type: cell-based; conditions: 72 hours incubation, concentration reducing cell numbers to 50% of solvent treated cells
Protocol: as §1

Chain of HDAC-1 (Q13547 whole entry): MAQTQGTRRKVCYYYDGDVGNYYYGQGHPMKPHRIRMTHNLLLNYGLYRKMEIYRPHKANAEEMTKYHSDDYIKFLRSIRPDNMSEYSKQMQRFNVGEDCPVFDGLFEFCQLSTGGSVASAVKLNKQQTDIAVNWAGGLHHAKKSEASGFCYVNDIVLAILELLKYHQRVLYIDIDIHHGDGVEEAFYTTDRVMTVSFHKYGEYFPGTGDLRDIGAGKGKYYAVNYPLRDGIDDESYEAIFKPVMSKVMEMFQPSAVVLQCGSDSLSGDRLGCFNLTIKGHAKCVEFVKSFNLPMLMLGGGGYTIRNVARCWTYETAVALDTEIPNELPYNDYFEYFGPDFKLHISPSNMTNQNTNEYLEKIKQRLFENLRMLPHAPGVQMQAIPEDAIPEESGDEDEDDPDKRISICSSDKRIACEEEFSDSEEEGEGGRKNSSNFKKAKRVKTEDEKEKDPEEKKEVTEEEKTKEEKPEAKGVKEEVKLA
Chain of HDAC-2 (Q92769 whole entry): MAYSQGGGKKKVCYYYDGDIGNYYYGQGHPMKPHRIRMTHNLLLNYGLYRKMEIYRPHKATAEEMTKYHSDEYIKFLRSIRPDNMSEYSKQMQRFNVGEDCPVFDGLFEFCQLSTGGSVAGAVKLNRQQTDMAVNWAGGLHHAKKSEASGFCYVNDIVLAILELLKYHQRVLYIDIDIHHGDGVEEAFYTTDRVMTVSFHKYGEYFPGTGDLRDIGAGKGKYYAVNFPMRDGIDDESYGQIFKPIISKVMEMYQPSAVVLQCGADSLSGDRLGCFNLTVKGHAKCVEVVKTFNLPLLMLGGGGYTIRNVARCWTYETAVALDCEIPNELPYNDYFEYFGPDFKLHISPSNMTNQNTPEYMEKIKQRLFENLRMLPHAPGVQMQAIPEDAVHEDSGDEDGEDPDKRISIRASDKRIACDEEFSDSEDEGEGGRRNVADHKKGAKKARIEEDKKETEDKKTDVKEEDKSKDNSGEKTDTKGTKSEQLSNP

Row | Compound | IC50 (HMEC cells; Homo sapiens) | IC50 (HDAC-1) | IC50 (HDAC-2) | IC50 (HCT116 cells; Homo sapiens, HCT-116) | IC50 (HCT116 cells) | IC50 (HMEC cells)
1 | Nc1ccccc1NC(=O)c1ccc(N2CC[C@H](NC(=O)NCc3cccnc3)C2)cc1 [Compound 128, (S)-N-(2-Aminophenyl)-4-(3-(3-(pyridin-3-ylmethyl)ureido)pyrrolidin-1-yl)benzamide] | ≤ 50 µM | ≤ 5 µM | ≤ 1 µM | ≤ 5 µM |  | 
2 | Nc1ccccc1NC(=O)c1ccc(N2CC[C@H](NC(=O)OCc3cccnc3)C2)cc1 [Compound 127, ((S)-Pyridin-3-ylmethyl-1-(4-(2-aminophenylcarbamoyl)phenyl)pyrrolidin-3-yl carbamate] | > 50 µM | ≤ 1 µM | ≤ 5 µM | ≤ 5 µM |  | 
3 | CN(C)CCCOC(=O)N[C@H]1CCN(c2ccc(C(=O)Nc3ccccc3N)cc2)C1 [Compound 144, (S)-3-(Dimethylamino)propyl 1-(4-(2-aminophenylcarbamoyl)phenyl)pyrrolidin-3-yl carbamate] |  | ≤ 0.5 µM | ≤ 0.5 µM |  | ≤ 1 µM | 
4 | CCNC(=O)O[C@H]1CCN(c2ccc(C(=O)Nc3ccccc3N)cc2)C1 [Compound 162, (S)-1-(4-(2-Aminophenylcarbamoyl)phenyl)pyrrolidin-3-yl ethyl carbamate] | > 50 µM | ≤ 0.5 µM | ≤ 5 µM | ≤ 5 µM |  | 
5 | Nc1ccccc1NC(=O)c1ccc(N2CC[C@H](NC(=O)OCC(F)(F)F)C2)cc1 [Compound 140, (S)-2,2,2-Trifluoroethyl 1-(4-(2-aminophenylcarbamoyl)phenyl) -pyrrolidin-3-ylcarbamate] | ≤ 10 µM | ≤ 0.5 µM | ≤ 0.5 µM | ≤ 1 µM |  | 
6 | CN(C)CC(=O)N[C@H]1CCN(c2ccc(C(=O)Nc3ccccc3N)cc2)C1 [Compound 141, (S)-N-(2-Aminophenyl)-4-(3-(2-(dimethylamino)acetamido)pyrrolidin-1-yl)benzamide] | > 50 µM | ≤ 0.5 µM | ≤ 5 µM | ≤ 5 µM |  | 
7 | Nc1ccccc1NC(=O)c1ccc(N2CC[C@H](O)C2)cc1 [Compound 160, (S)-N-(2-Aminophenyl)-4-(3-hydroxypyrrolidin-1-yl)benzamide] |  | ≤ 1 µM | ≤ 1 µM |  |  | 
8 | Nc1ccccc1NC(=O)c1ccc(N2CC[C@H](NC(=O)OC3CCOCC3)C2)cc1 [Compound 200, (S)-tetrahydro-2H-pyran-4-yl 1-(4-(2-aminophenylcarbamoyl)phenyl)-pyrrolidin-3-ylcarbamate] | > 50 µM | ≤ 0.5 µM | ≤ 0.5 µM | ≤ 0.5 µM |  | 
9 | CCOC(=O)N[C@H]1CCN(c2ccc(C(=O)Nc3ccccc3N)cn2)C1 [Compound 156, (S)-Ethyl 1-(5-(2-aminophenylcarbamoyl)pyridin-2-yl)pyrrolidin-3-ylcarbamate] | ≤ 50 µM | ≤ 0.5 µM | ≤ 1 µM | ≤ 1 µM |  | 
10 | COC(=S)N[C@H]1CCN(c2ccc(C(=O)Nc3ccccc3N)cc2)C1 [Compound 135, (S)-O-Methyl 1-(4-(2-aminophenylcarbamoyl)phenyl)pyrrolidin-3-ylcarbamothioate] | ≤ 10 µM | ≤ 0.1 µM | ≤ 0.5 µM | ≤ 0.5 µM |  | 
11 | COC(=O)N[C@H]1CCN(c2ccc(C(=O)Nc3ccccc3N)cn2)C1 [Compound 155, (S)-Methyl 1-(5-(2-aminophenylcarbamoyl)pyridin-2-yl)pyrrolidin-3-ylcarbamate] | ≤ 50 µM | ≤ 0.5 µM | ≤ 5 µM | ≤ 5 µM |  | 
12 | Nc1ccccc1NC(=O)c1ccc(N2CC[C@H](NC(=S)NCc3cccnc3)C2)cc1 [Compound 131, (S)-N-(2-Aminophenyl)-4-(3-(3-(pyridin-3-ylmethyl)thioureido)pyrrolidin-1-yl)benzamide] |  | ≤ 0.5 µM | ≤ 5 µM | ≤ 1 µM |  | 
13 | CC(C)OC(=O)N[C@H]1CCN(c2ccc(C(=O)Nc3ccccc3N)cc2)C1 [Compound 198, (S)-isopropyl 1-(4-(2-aminophenylcarbamoyl)phenyl)-pyrrolidin-3-ylcarbamate] | ≤ 50 µM | ≤ 0.5 µM | ≤ 0.5 µM | ≤ 1 µM |  | 
14 | COC(=O)N(Cc1cccnc1)[C@H]1CCN(c2ccc(C(=O)Nc3ccccc3N)cc2)C1 [Compound 196, (S)-methyl 1-(4-(2-aminophenylcarbamoyl)phenyl)-pyrrolidin-3-yl(pyridin-3-ylmethyl)carbamate] |  | ≤ 0.5 µM | ≤ 0.5 µM | ≤ 5 µM |  | 
15 | Nc1ccccc1NC(=O)c1ccc(N2CC[C@H](NC(=O)OCc3ccncc3)C2)cc1 [Compound 142, (S)-Pyridin-4-ylmethyl 1-(4-(2-aminophenylcarbamoyl)phenyl)pyrrolidin-3-yl carbamate] | ≤ 50 µM | ≤ 0.1 µM | ≤ 0.5 µM | ≤ 1 µM |  | 
16 | COCCOC(=O)N[C@H]1CCN(c2ncc(C(=O)Nc3ccccc3N)cn2)C1 [Compound 151, (S)-2-Methoxyethyl 1-(5-(2-aminophenylcarbamoyl)pyrimidin-2-yl)pyrrolidin-3-ylcarbamate] |  | ≤ 1 µM |  | ≤ 50 µM |  | 
17 | Nc1ccccc1NC(=O)c1ccc(N2CC[C@H](NC(=O)OCCN3CCOCC3)C2)cc1 [Compound 195, (S)-2-morpholinoethyl 1-(4-(2-aminophenylcarbamoyl)-phenyl)pyrrolidin-3-ylcarbamate] |  | ≤ 0.5 µM | ≤ 1 µM | ≤ 5 µM |  | 
18 | Nc1ccccc1NC(=O)c1ccc(N2CC[C@H](NC(=O)OCc3ccccc3)C2)cc1 [Compound 124, (S)-Benzyl 1-(4-(2-aminophenylcarbamoyl)phenyl)pyrrolidin-3-yl carbamate] | ≤ 5 µM | ≤ 0.5 µM | ≤ 0.1 µM |  |  | 
19 | Nc1ccccc1NC(=O)c1ccc(N2CC[C@H](NC(=O)OCc3ccoc3)C2)cc1 [Compound 145, (S)-Furan-3-ylmethyl 1-(4-(2-aminophenylcarbamoyl)phenyl) pyrrolidin-3-yl carbamate] | ≤ 50 µM | ≤ 0.1 µM | ≤ 0.5 µM | ≤ 0.5 µM |  | 
20 | COCCOC(=O)N[C@H]1CCN(c2ccc(C(=O)Nc3ccccc3N)cc2)C1 [Compound 129, (S)-2-Methoxyethyl-1-(4-(2-aminophenylcarbamoyl)phenyl)pyrrolidin-3-yl carbamate] |  |  |  |  | ≤ 1 µM | ≤ 50 µM
21 | Nc1ccccc1NC(=O)c1ccc(N2CC[C@H](NC(=O)OCC3c4ccccc4-c4ccccc43)C2)cc1 [Compound 201, (S)-(9H-fluoren-9-y)methyl 1-(4-(2-aminophenylcarbamoyl)-phenyl)pyrrolidin-3-ylcarbamate] |  | ≤ 0.1 µM | ≤ 0.5 µM |  |  | 
22 | CN(C)[C@H]1CCN(c2ccc(C(=O)Nc3ccccc3N)cc2)C1 [Compound 165, (S)-N-(2-Aminophenyl)-4-(3-(dimethylamino)pyrrolidin-1-yl)benzamide] |  | ≤ 1 µM | ≤ 5 µM |  |  | 
23 | COC(=O)N[C@H]1CCN(c2ccc(C(=O)Nc3ccccc3N)cc2)C1 [Compound 120, (S)-Methyl 1-(4-(2-aminophenylcarbamoyl)phenyl)pyrrolidin-3-yl carbamate] | > 50 µM | ≤ 0.5 µM | ≤ 0.5 µM |  |  | 
24 | COCCOC(=O)N[C@@H]1CCN(c2ccc(C(=O)Nc3ccccc3N)cc2)C1 [Compound 130] |  | ≤ 5 µM | ≤ 5 µM | ≤ 5 µM |  | 
25 | (S)-Methyl 1-(5-(2-aminophenyl carbamoyl)pyrimidin-2-yl) pyrrolidin-3-yl carbamate [Compound 152] |  | ≤ 1 µM |  |  | ≤ 10 µM | 
26 | CC(=O)O[C@H]1CCN(c2ccc(C(=O)Nc3ccccc3N)cc2)C1 [Compound 159, (S)-1-(4-(2-Aminophenylcarbamoyl)phenyl)pyrrolidin-3-yl acetate] |  | ≤ 0.5 µM | ≤ 1 µM |  |  | 
27 | CN1CC[C@@H](OC(=O)N[C@H]2CCN(c3ccc(C(=O)Nc4ccccc4N)cc3)C2)C1 [Compound 146, (R)-1-Methylpyrrolidin-3-yl (S)-1-(4-(2-aminophenylcarbamoyl)phenyl)pyrrolidin-3-yl carbamate] |  | ≤ 0.5 µM | ≤ 0.5 µM | ≤ 5 µM |  | 
28 | COCCOC(=O)N[C@H]1CCN(c2ccc(C(=O)Nc3ccccc3N)cn2)C1 [Compound 154, (S)-2-Methoxyethyl 1-(5-(2-aminophenylcarbamoyl)pyridin-2-yl)pyrrolidin-3-ylcarbamate] |  | ≤ 0.5 µM | ≤ 5 µM | ≤ 5 µM |  | 
